Columns and labels:
Assay type in all cases: cell-based
adenosine A2a receptor = biological target: T1, adenosine A2a receptor (Homo sapiens, UniProt P29274); test: Indirect determination of adenosine agonism by gene expression (luciferase), A2a cells; settings: stably transfected CHO cells; 50% of maximum luciferase stimulation
T1 construct: expressed in transfected cells; host or cells: CHO (Chinese Hamster Ovary)
Text: (§1) B-1. Indirect Determination of the Adenosine Agonism by Way of Gene Expression
(§2) Cells of the CHO (Chinese Hamster Ovary) permanent cell line are transfected stably with the cDNA for the adenosine receptor subtypes A1, A2a and A2b. The adenosine A1 receptors are coupled to the adenylate cyclase by way of Gi proteins, while the adenosine A2a and A2b receptors are coupled by way of Gs proteins. In correspondence with this, the formation of cAMP in the cell is inhibited or stimulated, respectively. After that, expression of the luciferase is modulated by way of a cAMP-dependent promoter. The luciferase test is optimized, with the aim of high sensitivity and reproducibility, low variance and good suitability for implementation on a robot system, by varying several test parameters, such as cell density, duration of the growth phase and the test incubation, forskolin concentration and medium composition. The following test protocol is used for pharmacologically characterizing cells and for the robot-assisted substance screening:
(§3) The stock cultures are grown, at 37° C. and under 5% CO2, in DMEM/F12 medium containing 10% FCS (fetal calf serum) and in each case split 1:10 after 2-3 days. The test cultures are seeded in 384-well plates with 2000 cells per well and grown at 37° C. for approx. 48 hours. The medium is then replaced with a physiological sodium chloride solution (130 mM sodium chloride, 5 mM potassium chloride, 2 mM calcium chloride, 20 mM HEPES, 1 mM magnesium chloride hexahydrate, 5 mM sodium bicarbonate, pH 7.4). The substances to be tested, which are dissolved in DMSO, are pipetted into the test cultures (maximum final concentration of DMSO in the test mixture: 0.5%) in a dilution series of from 5×10^−11M to 3×10^−6M (final concentration). 10 minutes later, forskolin is added to the A1 cells and all the cultures are subsequently incubated at 37° C. for four hours. After that, 35 μl of a solution which is composed of 50% lysis reagent (30 mM disodium hydrogenphosphate, 10% glycerol, 3% TritonX100, 25 mM TrisHCl, 2 mM dithiotreitol (DTT), pH 7.8) and 50% luciferase substrate solution (2.5 mM ATP, 0.5 mM luciferin, 0.1 mM coenzyme A, 10 mM tricine, 1.35 mM magnesium sulfate, 15 mM DTT, pH 7.8) are added to the test cultures, which are shaken for approx. 1 minute and the luciferase activity is measured using a camera system. The EC50 values are determined, i.e., the concentrations at which 50% of the luciferase answer is inhibited in the case of the A1 cell, and, respectively, 50% of the maximum stimulation with the corresponding substance is achieved in the case of the A2b and A2a cells. […] Pharmacol., 357 (1998), 1-9).
(§4) Table 1 below lists the EC50 values of representative working examples for the receptor stimulation on adenosine A1, A2a and A2b receptor subtypes: […]

adenosine A1 receptor = biological target: T2, adenosine A1 receptor (Homo sapiens, UniProt P30542); test: Indirect determination of adenosine agonism by gene expression (luciferase), A1 cells; settings: 1 μM forskolin; stably transfected CHO cells; 50% inhibition of luciferase answer
T2 construct: expressed in transfected cells; host or cells: CHO (Chinese Hamster Ovary)
T2 sequence (P30542 1-326): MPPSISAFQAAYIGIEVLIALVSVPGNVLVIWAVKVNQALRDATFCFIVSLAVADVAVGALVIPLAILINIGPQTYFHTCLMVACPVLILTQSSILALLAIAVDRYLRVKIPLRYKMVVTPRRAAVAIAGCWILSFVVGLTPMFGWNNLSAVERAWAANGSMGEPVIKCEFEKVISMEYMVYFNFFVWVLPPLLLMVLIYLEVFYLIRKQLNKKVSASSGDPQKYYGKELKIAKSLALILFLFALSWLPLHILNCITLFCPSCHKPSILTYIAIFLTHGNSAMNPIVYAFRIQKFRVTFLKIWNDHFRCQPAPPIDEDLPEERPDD
Text: as §1, §2, §3, §4

adenosine A2b receptor = biological target: T3, adenosine A2b receptor (Homo sapiens, UniProt P29275); test: Indirect determination of adenosine agonism by gene expression (luciferase), A2b cells; settings: stably transfected CHO cells; 50% of maximum luciferase stimulation
T3 construct: expressed in transfected cells; host or cells: CHO (Chinese Hamster Ovary)
T3 sequence (P29275 1-332): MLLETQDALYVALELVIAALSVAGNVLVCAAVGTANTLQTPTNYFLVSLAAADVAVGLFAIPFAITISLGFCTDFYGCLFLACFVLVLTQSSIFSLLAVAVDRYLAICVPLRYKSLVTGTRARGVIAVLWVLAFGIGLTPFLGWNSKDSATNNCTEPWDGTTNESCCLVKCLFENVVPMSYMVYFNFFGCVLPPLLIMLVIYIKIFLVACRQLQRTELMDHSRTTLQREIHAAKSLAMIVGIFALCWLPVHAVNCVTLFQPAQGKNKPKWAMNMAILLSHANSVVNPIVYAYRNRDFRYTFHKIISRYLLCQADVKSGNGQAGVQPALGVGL
Text: as §1, §2, §3, §4

T1 sequence (P29274 whole entry): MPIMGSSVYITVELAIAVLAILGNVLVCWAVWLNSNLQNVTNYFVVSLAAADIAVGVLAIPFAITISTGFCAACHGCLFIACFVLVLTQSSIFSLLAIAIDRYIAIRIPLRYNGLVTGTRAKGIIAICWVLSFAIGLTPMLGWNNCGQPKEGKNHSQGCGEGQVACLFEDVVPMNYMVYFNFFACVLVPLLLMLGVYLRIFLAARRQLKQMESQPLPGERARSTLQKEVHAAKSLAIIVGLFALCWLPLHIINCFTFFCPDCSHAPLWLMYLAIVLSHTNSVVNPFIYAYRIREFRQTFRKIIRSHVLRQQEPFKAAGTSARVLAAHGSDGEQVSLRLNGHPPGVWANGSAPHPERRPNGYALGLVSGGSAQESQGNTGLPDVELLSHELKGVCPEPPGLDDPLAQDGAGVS

Row | SMILES | EC50 (adenosine A2a receptor) [nM] | EC50 (adenosine A1 receptor) [nM] | EC50 (adenosine A2b receptor) [nM]
1 | N#Cc1c(N)nc(SCc2csc(-c3ccc(Cl)cc3)n2)c(C#N)c1C1CCN(C(=O)CO)CC1 [Example 9, 2-Amino-6-({[2-(4-chlorophenyl)-1,3-thiazol-4-yl]methyl}thio)-4-(1-glycoloylpiperidin-4-yl)-pyridine-3,5-dicarbonitrile] | > 3000 | 8.9 | 791
2 | N#Cc1c(N)nc(SCc2csc(-c3ccc(Cl)cc3)n2)c(C#N)c1C1CCCCC1 [Example 29, 2-Amino-6-({[2-(4-chlorophenyl)-1,3-thiazol-4-yl]methyl}thio)-4-cyclohexylpyridine-3,5-dicarbonitrile] | > 3000 | 3.8 | 345
3 | N#Cc1c(N)nc(SCc2cccc(C(=O)O)c2)c(C#N)c1C1CCCCO1 (stereo not drawn) [Example 51] | > 3000 | 6.8 | > 3000
4 | N#Cc1c(N)nc(SCc2coc(-c3ccc(Cl)cc3)n2)c(C#N)c1C1CCCOC1 (stereo not drawn) [Example 58, 2-Amino-6-({[2-(4-chlorophenyl)-1,3-oxazol-4-yl]methyl}sulfanyl)-4-(tetrahydro-2H-pyran-3-yl)-pyridine-3,5-dicarbonitrile] | > 3000 | 11 | 950
5 | Cc1sc(-c2ccc(Cl)cc2)nc1CSc1nc(N)c(C#N)c(C2CCCCC2)c1C#N [Example 76] | > 3000 | 106 | > 3000
6 | N#Cc1c(N)nc(SCc2coc(-c3ccc(F)c(Cl)c3)n2)c(C#N)c1[C@H]1CC[C@@H](O)CC1 [Example 78] | > 3000 | 17 | > 3000

Results, then the molecule that gave them:

Row | EC50 (adenosine A2a receptor) [nM] | EC50 (adenosine A1 receptor) [nM] | EC50 (adenosine A2b receptor) [nM] | SMILES
7 | > 3000 | 9.5 | 860 | N#Cc1cnc(SCc2csc(-c3ccc(C(=O)O)cc3)n2)c(C#N)c1C1CCCOC1 (racemic) [Example 65, rac-4-[4-({[3,5-Dicyano-4-(tetrahydro-2H-pyran-3-yl)pyridin-2-yl]sulfanyl}methyl)-1,3-thiazol-2-yl]benzoic acid]
8 | 620 | 0.4 | 75 | N#Cc1c(N)nc(SCc2csc(-c3ccc(C(=O)O)cc3)n2)c(C#N)c1C1CCCCO1 (single isomer, unassigned) [Example 23]
9 | > 3000 | 0.8 | 51 | Cc1nc(SCc2csc(-c3ccc(C(=O)O)cc3)n2)c(C#N)c(C2CCCCO2)c1C#N (single isomer, unassigned; (+)) [Example 56, (+)-4-[4-({[3,5-Dicyano-6-methyl-4-(tetrahydro-2H-pyran-2-yl)pyridin-2-yl]sulfanyl}methyl)-1,3-thiazol-2-yl]benzoic acid]
10 | > 3000 | 0.06 | > 3000 | N#Cc1c(N)nc(SCc2csc(-c3ccc(C(=O)O)cc3)n2)c(C#N)c1C1CCCOC1 (single isomer, unassigned; (+)) [Example 62, (+)-4-[4-({[6-Amino-3,5-dicyano-4-(tetrahydro-2H-pyran-3-yl)pyridin-2-yl]sulfanyl}methyl)-1,3-thiazol-2-yl]benzoic acid]
11 | 380 | 10 | 670 | N#Cc1c(N)nc(SCc2csc(-c3ccc(Cl)cc3)n2)c(C#N)c1C1CCCCO1 (single isomer, unassigned; ent-2) [Example 15, ent-2-Amino-6-({[2-(4-chlorophenyl)-1,3-thiazol-4-yl]methyl}thio)-4-(tetrahydro-2H-pyran-2-yl)-pyridine-3,5-dicarbonitrile]
12 | 1260 | 0.8 | 558 | N#Cc1c(N)nc(SCc2csc(-c3ccc(Cl)cc3)n2)c(C#N)c1[C@H]1CC[C@H](O)CC1 [Example 3, 2-Amino-6-({[2-(4-chlorophenyl)-1,3-thiazol-4-yl]methyl}thio)-4-(trans-4-hydroxycyclohexyl)-pyridine-3,5-dicarbonitrile]
13 | 1100 | 2.9 | 320 | N#Cc1c(N)nc(SCc2csc(-c3ccc(Cl)cc3)n2)c(C#N)c1[C@H]1CC[C@@H](O)CC1 [Example 4]
14 | 1470 | 68 | > 3000 | CN1CCN(CCCNc2nc(SCc3csc(-c4ccc(Cl)cc4)n3)c(C#N)c(C3CCCCC3)c2C#N)CC1 [Example 35]
15 | 224 | 0.08 | 22 | N#Cc1c(N)nc(SCc2cccc(C(N)=O)c2)c(C#N)c1C1CCCCC1 [Example 70]

— patent US8304412B2, “Cyclically substituted 3,5-dicyano-2-thiopyridines and use thereof” (Bayer Intellectual Property GmbH, priority 2006, dated 2012)
